Assay results: patent publication US10668134B2, “Dental pretreatment material and dental tissue regeneration kit” (National Center for Geriatrics and Gerontology, priority 2016, dated 2020)

Key:
[1] = system: Eleventh-passage human periodontal membrane cells; assay: Migratory capacity of senescent cells of human periodontal membrane (TAXIscan-FL, SDF1 gradient); assay type: cell-based; settings: 48 hours, n=4, control 53.8 ± 4.6
Method: Eleventh-passage human periodontal membrane cells were plated in DMEM containing 10% FBS in collagen-coated 35 mm dishes (IWAKI) at a density of 2×10^4 cells/ml. After 20 hours, an ALK5 inhibitor (SB431542) was added to a final concentration of 10 ng/μl. Further, a CCR3 antagonist (SB328437) was added to a final concentration of 5 ng/μl. After 48 hours, the cells were detached, and Real-time horizontal chemotaxis analysis was performed using TAXIscan-FL (Effector Cell Institute, Tokyo) so as to measure the migratory capacity. Specifically, channels optimized (8 μm) for the size of cells are formed between a silicon plate having 6 μm pores and a glass plate, and 1 μl of treated periodontal membrane cells (10^5 cells/ml) was injected to one end portion of an associated one of the channels (n=4). Then, 1 μl of 10 ng/μl SDF1 was placed on the opposite side portion so as to form a certain constant concentration gradient. Based on the video images of migration, the number of migrating cells after 12 hours was measured.

[2] = system: HUVECs (Human Umbilical Vein Endothelial Cells); assay: Blood vessel-inducing capacity of culture supernatant of senescent dental pulp stem cells on HUVECs on matrigel; assay type: cell-based; settings: after 5 hours, DPSC CM alone 5.9 ± 2.9 mm
Method: (§1) Non-separated 22nd-passage human dental pulp stem cells were brought into a state of 50% confluence. The medium was replaced with a serum-free medium. After 24 hours, the culture conditioned medium was collected. The supernatant was concentrated approximately 40-fold using Amicon Ultra-15 Centrifugal Filter Unit with Ultracel-3 membrane (Millipore, Billerica, Mass.) with 3-kDa molecular cut. Proteinase inhibitors (Halt™ proteinase inhibitor cocktail EDTA-free, Thermo Scientific, Rockford, Ill., USA) was added. The mixture was dispended to be stored at −80° C. Protein content was measured using Bradford Ultra™ (Expedeon, Cambridge, UK).
HUVECs (Human Umbilical Vein Endothelial Cells) (clone 7F3415) (Lonza) were cultured with EGM 2 containing 10% FBS (Lonza). Thereafter, the culture supernatant (5 μg/ml proteins) prepared in 1 above was added to DMEM, as a blood vessel-inducing medium, containing 2% FBS, 5 μg/ml heparin (Lonza), 5 μg/ml ascorbic acid (Lonza), and 5 μg/ml hydrocortisone (Lonza). Further, an ALK5 inhibitor (SB431542, 10 ng/μl) was added to a part of the resultant mixture, and a CCR3 antagonist (SB328437, 5 ng/μl) was added to another part of the resultant mixture. […] Quantitative measurement was conducted, using Suite V3 software (Leica), on the length of a formed cord or tubular lumen.

[3] = system: Eleventh-passage human periodontal ligament cells; assay: Trophic factor expression in senescent cells of human periodontal membrane (real-time RT-PCR); assay type: cell-based; settings: control = 1
Method: Eleventh-passage human periodontal ligament cells were plated in DMEM containing 10% FBS in collagen-coated 35 mm dishes (IWAKI) at a density of 2×10^4 cells/ml. After 20 hours, ALK5 inhibitor (SB431542) was added to final concentrations of 5 ng/μl and 10 ng/μl. Further, CCR3 antagonist (SB328437) was added to final concentrations of 5 ng/μl and 10 ng/μl. After 48 hours, mRNA was extracted, and real-time RT-PCR was performed on senescence markers, namely p16, p53, IL6, IL1b, IL8, and TNFα (Table 4).
Real-time RT-PCR was performed on trophic factors, namely, VEGF, BDNF, NGF, MCP1 (Table below) using mRNA similar to that described in 2 above.

[4] = system: TGW cells (human neuroblastoma cell line); assay: Neurite outgrowth in TGW cells with culture conditioned medium of senescent dental pulp stem cells; assay type: cell-based; settings: after 48 hours, DPSC CM alone 111.5 ± 14.1 μm
Method: as §1
The culture supernatant (5 μg/ml proteins) prepared in 1 above was added to TGW cells (human neuroblastoma cell line). Further, an ALK5 inhibitor (SB431542, 10 ng/μl) was added to a part of the resultant mixture, and a CCR3 antagonist (SB328437, 5 ng/μl) was added to another part of the resultant mixture. TGW cells to which only the culture supernatant was added was used as a negative control. […] Neurite outgrowth after 48 hours was observed and measured with an inverted microscope (Leica).

[5] = system: post-pulpectomy root canal of a tooth of the canine of middle or advanced age; assay: Dental pulp regeneration after trypsin pretreatment plus root canal filler containing CCR3 antagonist; assay type: in vivo, dog; settings: pretreatment with trypsin (50 μg/ml with nanobubble liquid, 10 minutes) then filler with 200 ng; after 14 days; vs no pretreatment
Method: After 7 to 14 days following a pulpectomy treatment, the treated root canal underwent alternate washing, and then, washing with physiologic saline. Smear clean was then allowed to react for 2 minutes. The root canal was then further washed with physiologic saline, and dried. Further, FRANCETIN⋅T⋅POWDER (2,500 USP of crystalized trypsin per 10 mg) (MOCHIDA PHARMACEUTICAL CO., LTD.) was mixed with a nanobubble liquid into a 50 μg/ml (0.05%) solution. The solution was allowed to react for 10 minutes. The root canal was washed with physiologic saline, and dried. In the same manner as in Example 3, a root canal filler was prepared by suspending 1×10^6 allogeneic dental pulp stem cells, which had been membrane-isolated, in 40 μl of a scaffold (Koken Atelocollagen Implant), and by suspending 3 μl of a 100 μg/ml G-CSF (NEUTROGIN). Further a CCR3 antagonist (SB328437, 200 ng) was added to the root canal filler. The root canal filler was injected into the post-pulpectomy root canal. After 14 days following the transplantation, the tooth was extracted, and 5 μm paraffin sections were prepared. The paraffin sections were then H-E stained to undergo morphological observation.

| SMILES | number of migrating cells after 12 hours, Average ± SD ([1]; final concentration 10 ng/μl) | Length of New Blood Vessel ([2]; DPSC CM + 10 ng/μl) [mm] | BDNF trophic factor expression ([3]; 5 ng/μl) | MCP1 trophic factor expression ([3]; 5 ng/μl) | NGF trophic factor expression ([3]; 5 ng/μl) | VEGF trophic factor expression ([3]; 5 ng/μl) | BDNF trophic factor expression ([3]; 10 ng/μl) | MCP1 trophic factor expression ([3]; 10 ng/μl) | NGF trophic factor expression ([3]; 10 ng/μl) | VEGF trophic factor expression ([3]; 10 ng/μl) | Neurite Outgrowth Length ([4]; DPSC CM + 10 ng/μl) [μm] | amount of regenerated dental pulp tissue [5] | number of migrating cells after 12 hours, Average ± SD ([1]; final concentration 5 ng/μl) | Length of New Blood Vessel ([2]; DPSC CM + 5 ng/μl) [mm] | Neurite Outgrowth Length ([4]; DPSC CM + 5 ng/μl) [μm] |
| --- | --- | --- | --- | --- | --- | --- | --- | --- | --- | --- | --- | --- | --- | --- | --- |
| NC(=O)c1ccc(-c2nc(-c3ccc4c(c3)OCO4)c(-c3ccccn3)[nH]2)cc1 [ALK5 inhibitor, SB431542] | 21.3 ± 10.9 | 13.2 ± 2.6 | 0.44 | 1.08 | 0.58 | 0.96 | 0.47 | 0.96 | 0.44 | 1.25 | 2710.5 ± 1223.0 | – | – | – | – |
| COC(=O)[C@H](Cc1ccc([N+](=O)[O-])cc1)NC(=O)c1cccc2ccccc12 [CCR3 antagonist, SB328437] | – | – | 0.33 | 2.35 | 0.50 | 0.92 | 0.43 | 0.54 | 0.58 | 0.70 | – | significant increase | 23.3 ± 10.7 | 2.8 ± 0.3 | 518.7 ± 126.5 |
